Data published in patent EP3481220B1, “SWEET RAPESEED PROTEIN ISOLATE AND PROCESS FOR OBTAINING IT” (DSM IP Assets B.V., priority 2016, dated 2018).

Assays:
[1] = Equal sweetness, sensory panel, versus sucrose solutions; assay type: in vivo; conditions: scored against the reference = 50, line scale 0-100
Description: The flavor characteristics can be evaluated by a sensory panel using techniques known in the art. Investigating the effects of flavor, mouthfeel and aftertaste requires an extended evaluation of the products and this was done by using Quantitative Descriptive Analysis (QDA). Therefore, a sensory panel assessed the protein products taking in account Good Sensory Practices. During the QDA measurement the intensities of the attributes were obtained by the Fizz sensory data acquisition system, using unstructured line scales ranging from 0-100. The products were evaluated twice with 11 panel members. The products were given one-by-one to the panel members. The products were given in a white polystyrene cup with a white polystyrene spoon in order to prevent sedimentation during tasting. Data were analyzed using SenPaq (Ql-statistics).
The panelists received a reference sample (2 wt.% rapeseed protein isolate in water) with a potency designated by an arbitrary sweetness value of 50 (middle of the scale), followed by several sucrose solutions coded and balanced with potencies higher than or lower than the reference. Panelists scored for example a sample that is perceived as twice as strong as the reference with a score of 100, half the sweetness was given a value of 25. Scores were gathered by means of FIZZ data acquisition on unstructured line scales ranging from 0-100. The various concentrations of sucrose were first determined by a pretest.
To identify the sweetness character (i.e. initial sweetness, lingering) of 2% rapeseed protein isolate in water compared to sucrose solutions (10 g/l, 20 g/l, 30 g/l, 40 g/l and 50 g/l) the samples were taken into the mouth on instruction of the panel leader. Directly the intensity of the sweetness was scored. After three seconds the sample was swallowed and the intensity was scored again, followed by scoring at 5, 10, 20, 30, 60, 90 and 120 seconds after swallowing. Intensity scores were given on unstructured 0-100 line scales in FIZZ. The samples were evaluated one-by-one in duplicate according to an optimally balanced design. Equal sweetness and sweetness character was assessed by comparing a 2 wt.% aqueous solution of the resultant native rapeseed protein isolate with aqueous sucrose solutions of different strengths at room temperature.

[2] = Conductivity in aqueous solution (conductivity meter); assay type: physicochemical; conditions: aqueous 5 g/l solution; given for comparison

Row | SMILES | Relative Sweetness ([1]; 10 g/l aqueous solution) | Relative Sweetness ([1]; 20 g/l aqueous solution) | Relative Sweetness ([1]; 30 g/l aqueous solution) | Relative Sweetness ([1]; 40 g/l aqueous solution) | Relative Sweetness ([1]; 50 g/l aqueous solution) | conductivity [2]
1 | OC[C@H]1O[C@@](CO)(O[C@H]2O[C@H](CO)[C@@H](O)[C@H](O)[C@H]2O)[C@@H](O)[C@@H]1O [Sucrose] | 35 | 49 | 68 | 70 | 78 | –
2 | [Cl-].[Na+] [sodium chloride] | – | – | – | – | – | around 9,400 µS/cm
